PubChem BioAssay AID248 (DTP/NCI, 2004)
“And” between values parts separate entries of the source, which are not always exact repeats. Equal values may be shown once. Toxic doses and inconclusive results are not listed. Rule as the data show it: active = T/C of 150% or more; inactive = T/C below 125%.

Tested on: L1210 leukemia ip in BDF1 mice, survival T/C
Assay: NCI In Vivo Anticancer Drug Screen. Data for tumor model L1210 Leukemia (intraperitoneal) in B6D2F1 (BDF1) mice
Settings: endpoint: mean survival time, higher = longer survival
Summary of the method: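 Antitumor effect is assessed in tumor-bearing animals. Survival in the compound arm is compared with a vehicle-dosed control arm and expressed as their quotient.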

[1] = dose: 100.0 mg/kg/injection, schedule: Q04DX003 (ip), vehicle: saline with Tween-80
[2] = dose: 200.0 mg/kg/injection, schedule: Q04DX003 (ip), vehicle: saline with Tween-80
[3] = dose: 400.0 mg/kg/injection, schedule: Q04DX003 (ip), vehicle: saline with Tween-80
[4] = dose: 100.0 mg/kg/injection, schedule: Q04DX002 (ip), vehicle: Klucel (hydroxypropylcellulose) (HPC)
[5] = dose: 200.0 mg/kg/injection, schedule: Q04DX002 (ip), vehicle: Klucel (hydroxypropylcellulose) (HPC)
[6] = dose: 400.0 mg/kg/injection, schedule: Q04DX002 (ip), vehicle: Klucel (hydroxypropylcellulose) (HPC)
[7] = dose: 12.5 mg/kg/injection, schedule: Q01DX009 (ip), vehicle: Klucel (hydroxypropylcellulose) (HPC)
[8] = dose: 25.0 mg/kg/injection, schedule: Q01DX009 (ip), vehicle: Klucel (hydroxypropylcellulose) (HPC)
[9] = dose: 100.0 mg/kg/injection, schedule: Q01DX001 (ip), vehicle: other
[10] = dose: 100.0 mg/kg/injection, schedule: Q01DX001 (ip), vehicle: Klucel (hydroxypropylcellulose) (HPC)
[11] = dose: 100.0 mg/kg/injection, schedule: Q01DX001 (ip), vehicle: carboxymethylcellulose (CMC)
[12] = dose: 200.0 mg/kg/injection, schedule: Q01DX001 (ip), vehicle: carboxymethylcellulose (CMC)
[13] = dose: 400.0 mg/kg/injection, schedule: Q01DX001 (ip), vehicle: carboxymethylcellulose (CMC)
[14] = dose: 100.0 mg/kg/injection, schedule: Q01DX001 (ip), vehicle: saline
[15] = dose: 200.0 mg/kg/injection, schedule: Q01DX001 (ip), vehicle: saline
[16] = dose: 400.0 mg/kg/injection, schedule: Q01DX001 (ip), vehicle: saline
[17] = dose: 50.0 mg/kg/injection, schedule: Q01DX009 (ip), vehicle: saline with Tween-80
[18] = dose: 100.0 mg/kg/injection, schedule: Q01DX009 (ip), vehicle: saline with Tween-80
[19] = dose: 200.0 mg/kg/injection, schedule: Q01DX009 (ip), vehicle: saline with Tween-80
[20] = dose: 100.0 mg/kg/injection, schedule: Q04DX002 (ip), vehicle: saline
[21] = dose: 25.0 mg/kg/injection, schedule: Q01DX001 (ip), vehicle: Klucel (hydroxypropylcellulose) (HPC)
[22] = dose: 50.0 mg/kg/injection, schedule: Q01DX001 (ip), vehicle: Klucel (hydroxypropylcellulose) (HPC)

Measured: T/C

CSc1cc(=O)n(C2OC(COC(C)=O)C(OC(C)=O)C2OC(C)=O)c(=O)[nH]1 (stereo not given)
inactive: dose: 100.0 mg/kg/injection, schedule: Q01DX005 (ip), vehicle: saline 95 % of control | dose: 200.0 mg/kg/injection, schedule: Q01DX005 (ip), vehicle: saline 97 % of control

CC(C)CCCC(C)C1CCC2C3CC(=O)OC4CC(Br)CCC4(C)C3CCC12C (stereo not given)
inactive: [1] 101 % of control | [2] 101 % of control | [3] 102 % of control

CCCCCCCCCCCCOc1ccc(Br)cc1
inactive: [1] 98 % of control | [2] 92 % of control | [3] 96 % of control

CS(=O)(=O)OCC1OC(c2ccccc2)OC(C(CBr)OS(C)(=O)=O)C1OS(C)(=O)=O (stereo not given)
inactive: [4] 97 % of control | [5] 93 % of control | [6] 93 % of control

O=C(CBr)Nc1ccc(Cl)cc1
inactive: dose: 2.0 mg/kg/injection, schedule: Q04DX003 (ip), vehicle: Klucel (hydroxypropylcellulose) (HPC) 96 % of control | dose: 3.12 mg/kg/injection, schedule: Q01DX009 (ip), vehicle: Klucel (hydroxypropylcellulose) (HPC) 92 % of control | dose: 4.0 mg/kg/injection, schedule: Q04DX003 (ip), vehicle: Klucel (hydroxypropylcellulose) (HPC) 104 % of control | dose: 6.25 mg/kg/injection, schedule: Q01DX009 (ip), vehicle: Klucel (hydroxypropylcellulose) (HPC) 102 % of control | dose: 9.0 mg/kg/injection, schedule: Q04DX003 (ip), vehicle: Klucel (hydroxypropylcellulose) (HPC) 100 % of control | [7] 89 % of control | dose: 19.0 mg/kg/injection, schedule: Q04DX003 (ip), vehicle: Klucel (hydroxypropylcellulose) (HPC) 104 % of control and 91 % of control | [8] 89 % of control | dose: 50.0 mg/kg/injection, schedule: Q01DX001 (ip), vehicle: other 95 % of control | [9] 101 % of control

CCOc1ccc(-n2c(O)c(N=Nc3ccc(Cl)cc3)c(=O)n(-c3ccc(OC)cc3)c2=S)cc1
inactive: [10] 96 % of control | dose: 200.0 mg/kg/injection, schedule: Q01DX001 (ip), vehicle: Klucel (hydroxypropylcellulose) (HPC) 98 % of control | dose: 400.0 mg/kg/injection, schedule: Q01DX001 (ip), vehicle: Klucel (hydroxypropylcellulose) (HPC) 96 % of control

COc1cc(N(CCCl)CCCl)ccc1C=Nc1cc(Cl)ccc1-n1ccnc1
inactive: [4] 95 % of control | [5] 95 % of control | [6] 87 % of control

NNC(=S)N/N=C/c1ccc([N+](=O)[O-])s1
inactive: dose: 100.0 mg/kg/injection, schedule: Q04DX003 (ip), vehicle: saline 87 % of control | dose: 200.0 mg/kg/injection, schedule: Q04DX003 (ip), vehicle: saline 89 % of control | dose: 400.0 mg/kg/injection, schedule: Q04DX003 (ip), vehicle: saline 95 % of control

CCOC(=O)c1ccc(N(CC2CO2)S(=O)(=O)c2ccc(C)cc2)cc1 (stereo not given)
inactive: [1] 105 % of control | [2] 90 % of control | [3] 92 % of control

CC(c1ccccc1)n1cnc2c(=O)[nH]cnc21 (stereo not given)
inactive: dose: 50.0 mg/kg/injection, schedule: Q01DX001 (ip), vehicle: carboxymethylcellulose (CMC) 106 % of control | [11] 101 % of control | [12] 101 % of control | [13] 95 % of control

C#CC1(OCC(O)CO)CCCCC1 (stereo not given)
inactive: dose: 25.0 mg/kg/injection, schedule: Q01DX009 (ip), vehicle: water 115 % of control | dose: 50.0 mg/kg/injection, schedule: Q01DX009 (ip), vehicle: water 110 % of control | dose: 100.0 mg/kg/injection, schedule: Q01DX009 (ip), vehicle: water 100 % of control | dose: 200.0 mg/kg/injection, schedule: Q01DX009 (ip), vehicle: water 97 % of control

ClC(Cc1ccccc1)c1ccccc1 (stereo not given)
inactive: dose: 50.0 mg/kg/injection, schedule: Q01DX001 (ip), vehicle: saline 97 % of control | [14] 97 % of control | [15] 97 % of control | [16] 97 % of control

CC(C)(C=O)CO
inactive: dose: 100.0 mg/kg/injection, schedule: Q04DX002 (ip), vehicle: saline with Tween-80 94 % of control | dose: 200.0 mg/kg/injection, schedule: Q04DX002 (ip), vehicle: saline with Tween-80 97 % of control | dose: 400.0 mg/kg/injection, schedule: Q04DX002 (ip), vehicle: saline with Tween-80 91 % of control

NC(=O)NOCc1cscn1
inactive: [14] 95 % of control | [15] 97 % of control | [16] 97 % of control

COc1ccc(C)cc1NC(=O)OCCOc1cc(C)c(Cl)c(C)c1
inactive: [17] 90 % of control | [18] 87 % of control | [19] 87 % of control

Nc1ccc(Cc2ccc(Cl)cc2)cc1
inactive: dose: 75.0 mg/kg/injection, schedule: Q01DX001 (ip), vehicle: acetone 94 % of control | dose: 150.0 mg/kg/injection, schedule: Q01DX001 (ip), vehicle: acetone 94 % of control | dose: 300.0 mg/kg/injection, schedule: Q01DX001 (ip), vehicle: acetone 91 % of control

Cc1cc(N(CCCl)CCCl)ccc1C=Nc1ccc(-c2nc(Cc3ccccc3)sc2C)cc1
inactive: [11] 117 % of control | [12] 98 % of control | [13] 110 % of control

CCOC(=O)C1CCC(=O)O1 (stereo not given)
inactive: [20] 104 % of control | dose: 200.0 mg/kg/injection, schedule: Q04DX002 (ip), vehicle: saline 101 % of control | dose: 400.0 mg/kg/injection, schedule: Q04DX002 (ip), vehicle: saline 97 % of control

Cc1cc([N+](=O)[O-])ccc1O
inactive: [14] 100 % of control | [15] 100 % of control

O=C(O)CCCc1ccc(Cl)cc1
inactive: dose: 50.0 mg/kg/injection, schedule: Q01DX009 (ip), vehicle: saline 113 % of control | dose: 100.0 mg/kg/injection, schedule: Q01DX009 (ip), vehicle: saline 105 % of control | dose: 200.0 mg/kg/injection, schedule: Q01DX009 (ip), vehicle: saline 96 % of control

CCCC(C)(C)N
inactive: dose: 25.0 mg/kg/injection, schedule: Q04DX002 (ip), vehicle: saline 97 % of control | dose: 50.0 mg/kg/injection, schedule: Q04DX002 (ip), vehicle: saline 90 % of control | [20] 103 % of control

CCN(CC)CCOC(=O)c1[nH]cnc1/N=N/N(C)C1CCCCC1
inactive: [9] 104 % of control | dose: 200.0 mg/kg/injection, schedule: Q01DX001 (ip), vehicle: other 93 % of control

C#CC(C)(C)CC(=O)O
inactive: [1] 98 % of control | [2] 95 % of control | [3] 92 % of control

N#CC1(c2ccccc2)CC(C(=O)c2ccccc2)C(O)(c2ccccc2)CC1c1ccccc1 (stereo not given)
inactive: [17] 101 % of control | [18] 108 % of control | [19] 101 % of control

O=S1(=O)C2C=CCC1C(Cl)CC2 (stereo not given)
inactive: dose: 12.5 mg/kg/injection, schedule: Q01DX001 (ip), vehicle: Klucel (hydroxypropylcellulose) (HPC) 97 % of control | [7] 92 % of control | [21] 95 % of control | [8] 89 % of control | [22] 93 % of control

Cc1nccn1CC(=O)c1ccccc1
inactive: [21] 102 % of control | [8] 91 % of control | dose: 25.0 mg/kg/injection, schedule: Q04DX003 (ip), vehicle: Klucel (hydroxypropylcellulose) (HPC) 100 % of control | [22] 113 % of control | dose: 50.0 mg/kg/injection, schedule: Q01DX009 (ip), vehicle: Klucel (hydroxypropylcellulose) (HPC) 94 % of control and 108 % of control | dose: 50.0 mg/kg/injection, schedule: Q04DX003 (ip), vehicle: Klucel (hydroxypropylcellulose) (HPC) 103 % of control | [10] 95 % of control | dose: 100.0 mg/kg/injection, schedule: Q01DX009 (ip), vehicle: Klucel (hydroxypropylcellulose) (HPC) 97 % of control | [4] 96 % of control and 106 % of control | dose: 100.0 mg/kg/injection, schedule: Q04DX003 (ip), vehicle: Klucel (hydroxypropylcellulose) (HPC) 94 % of control | [5] 101 % of control
